In this assay the target is T1, human mAChR M4 (Homo sapiens, UniProt P08173).
T1 construct: expressed in transfected cells; host or cells: CHO-K1 (American Type Culture Collection), stably expressing hM4 and Gqi5
T1 sequence (P08173 1-479): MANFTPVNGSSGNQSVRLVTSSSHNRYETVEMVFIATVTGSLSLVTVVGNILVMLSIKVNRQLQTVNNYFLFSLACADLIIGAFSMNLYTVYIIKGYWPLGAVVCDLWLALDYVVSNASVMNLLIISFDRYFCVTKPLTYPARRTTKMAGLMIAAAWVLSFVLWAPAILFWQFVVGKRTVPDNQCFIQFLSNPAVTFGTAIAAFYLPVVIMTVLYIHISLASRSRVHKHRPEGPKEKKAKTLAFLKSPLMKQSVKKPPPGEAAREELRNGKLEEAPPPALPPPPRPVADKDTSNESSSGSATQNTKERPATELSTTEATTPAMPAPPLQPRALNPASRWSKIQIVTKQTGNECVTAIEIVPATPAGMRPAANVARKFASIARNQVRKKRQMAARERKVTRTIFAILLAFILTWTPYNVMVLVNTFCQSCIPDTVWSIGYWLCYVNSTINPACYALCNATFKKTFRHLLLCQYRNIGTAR
Kind of assay: mAChR M4 cell-based functional assay: calcium mobilization (Fluo-4, FDSS), potentiation of EC20 acetylcholine response in hM4-Gqi5 CHO-K1 cells. Also noted: Emax: dose or concentration left out as unconfirmed. The settings on record: for Emax at 30 µM: CHO-K1, % ACh maximum at 30 μM; for Emax at 30 µM / EC50: human M4; for EC50: potentiation of EC20 acetylcholine response, calcium mobilization. The procedure, abridged: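 Readout is the fluorescence-ratio rise at 1 Hz on FDSS, with PAM activity taken as concentration-dependent enhancement of the EC20 acetylcholine response, fitted four-parameter for EC50/Emax. hM4-Gqi5 CHO-K1 cells carried Fluo-4 AM dye; test compounds (11 points, 1:3) preceded EC20 acetylcholine additions at 144 s and 230 s.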
In general terms: A change in cytosolic calcium serves as a functional read-out for many receptors and channels.

For `Cc1c(N2CCc3ncc(N4CCOC4=O)cc3C2)nn2c(=O)ccnc2c1C` [Compound 2-144, 3-(6-(8,9-dimethyl-4-oxo-4H-pyrimido[1,2-b]pyridazin-7-yl)-5,6,7,8-tetrahydro-1,6-naphthyridin-3-yl)oxazolidin-2-one], the maximal response (Emax) at 30 µM is 98% and the half-maximal effective concentration (EC50) stood at 1.58 µM.
As for `Cc1ccc(Nc2cnc3c(c2)CN(c2nn4c(=O)ccnc4cc2C)CC3)c(F)n1` [Compound 2-115, 7-(3-((2-fluoro-6-methylpyridin-3-yl)amino)-7,8-dihydro-1,6-naphthyridin-6(5H)-yl)-8-methyl-4H-pyrimido[1,2-b]pyridazin-4-one], the Emax at 30 µM turned out to be 93% and the concentration for a half-maximal effect (EC50) is 0.329 µM.
Turning to `Cc1cc(=O)n2nc(N3CCc4ncc(-c5ccc(C6CC6)nc5)cc4C3)c(C)cc2n1` [Compound 1-72, 7-(3-(6-cyclopropylpyridin-3-yl)-7,8-dihydro-1,6-naphthyridin-6(5H)-yl)-2,8-dimethyl-4H-pyrimido[1,2-b]pyridazin-4-one], the maximum response (Emax) at 30 µM worked out at 75% and the EC50 worked out at 0.174 µM.
For `Cc1c(N2CCc3ncc(-c4ccccc4C(C)C)cc3C2)nn2c(=O)ccnc2c1C` [Compound 1-340, 7-(3-(2-isopropylphenyl)-7,8-dihydro-1,6-naphthyridin-6(5H)-yl)-8,9-dimethyl-4H-pyrimido[1,2-b]pyridazin-4-one], in that order: 48% and 0.503 µM.
Consider `COc1ccc(F)c(Nc2cnc3c(c2)CN(c2nn4c(=O)ccnc4cc2C)CC3)c1` [Compound 2-70, 7-(3-((2-fluoro-5-methoxyphenyl)amino)-7,8-dihydro-1,6-naphthyridin-6(5/)-yl)-8-methyl-4H-pyrimido[1,2-b]pyridazin-4-one], for which the Emax at 30 µM came out at 94% and the half-maximal effective concentration (EC50) came to 0.085 µM.
Turning to `COc1cnccc1-c1cnc2c(c1)CN(c1nn3c(=O)cc(C)nc3cc1C)CC2` [Compound 1-259, 7-(3-(3-methoxypyridin-4-yl)-7,8-1,6-naphthyridin-6(5H)-yl)-2,8-dimethyl-4H-pyrimido[1,2-b]pyridazin-4-one], the Emax at 30 µM amounted to 72% and the concentration for a half-maximal effect (EC50) was found to be 0.445 µM.
As to `Cc1cncc(-c2cnc3c(c2)CN(c2nn4c(=O)ccnc4cc2C)CC3)c1` [Compound 1-65, 8-methyl-7-(3-(5-methylpyridin-3-yl)-7,8-dihydro-1,6-naphthyridin-6(5H)-yl)-4H-pyrimido[1,2-b]pyridazin-4-one], the maximal effect (Emax) at 30 µM came to 70% and the EC50 was found to be 0.656 µM.
Turning to `Cc1cc2nccc(=O)n2nc1N1CCc2ncc(-c3ccccc3C3CC3)cc2C1` [Compound 1-440, 7-(3-(2-cyclopropylphenyl)-7,8-dihydro-1,6-naphthyridin-6(5H)-yl)-8-methyl-4H-pyrimido [1,2-b]pyridazin-4-one], the maximum response (Emax) at 30 µM is 56% and the EC50 came out at 0.38 µM.
`Cc1ccc2c(-c3cnc4c(c3)CN(c3nn5c(=O)ccnc5cc3C)CC4)cccc2n1` [Compound 1-48, 8-methyl-7-(3-(2-methylquinolin-5-yl)-7,8-dihydro-1,6-naphthyridin-6(5H)-yl)-4H-pyrimido[1,2-b]pyridazin-4-one]: the Emax at 30 µM was determined as 72% and the EC50 was found to be 0.321 µM.
As to `COCc1cc(=O)n2nc(N3CCc4ncc(-c5cnn6c5COCC6)cc4C3)c(C)c(C)c2n1` [Compound 1-380, 7-(3-(6,7-dihydro-4H-pyrazolo[5,1-c][1,4]oxazin-3-yl)-7,8-dihydro-1,6-naphthyridin-6(5H)-yl)-2-(methoxymethyl)-8,9-dimethyl-4H-pyrimido[1,2-b] pyridazin-4-one], the Emax at 30 µM is 95% and the EC50 was 0.205 µM.
Turning to `Cc1cc(N2CCc3ncc(N4CCCn5nccc54)cc3C2)nn2c(=O)ccnc12` [Compound 2-3, 7-(3-(6,7-dihydropyrazolo[1,5-a]pyrimidin-4(5H)-yl)-7,8-dihydro-1,6-naphthyridin-6(5H)-yl)-9-methyl-4H-pyrimido[1,2-b]pyridazin-4-one], the Emax at 30 µM stood at 71% and the EC50 is 0.173 µM.
For `COc1ccc(-c2cnc3c(c2)CN(c2nn4c(=O)cc(C(F)F)nc4c(C)c2C)CC3)cn1` [Compound 1-170, 2-(difluoromethyl)-7-(3-(6-methoxypyridin-3-yl)-7,8-dihydro-1,6-naphthyridin-6(5H)-yl)-8,9-dimethyl-4H-pyrimido[1,2-b]pyridazin-4-one] the same measures were 95% and 0.185 µM.
For `Cc1cc2nccc(=O)n2nc1N1CCc2ncc(-c3cn(C)nc3C)cc2C1` [Compound 1-2, 7-(3-(1,3-dimethyl-1H-pyrazol-4-yl)-7,8-dihydro-1,6-naphthyridin-6(5H)-yl)-8-methyl-4H-pyrimido[1,2-b]pyridazin-4-one] the same measures were 87% and 0.501 µM.
With `Cc1c(N2CCc3ncc(-c4cnn(CCN(C)C)c4)cc3C2)nn2c(=O)cc(C(F)F)nc2c1C` [Compound 1-308, 2-(difluoromethyl)-7-(3-(1-(2-(dimethylamino)ethyl)-1H-pyrazol-4-yl)-7,8-dihydro-1,6-naphthyridin-6(5H)-yl)-8,9-dimethyl-4H-pyrimido[1,2-b]pyridazin-4-one], the maximal response (Emax) at 30 µM came out at 78% and the EC50 is 0.313 µM.
Consider `Cc1cc(=O)n2nc(N3CCc4ncc(N5CCOC(C)(C)C5)cc4C3)c(C)c(C)c2n1` [Compound 2-39, 7-(3-(2,2-dimethylmorpholino)-7,8-dihydro-1,6-naphthyridin-6(5H)-yl)-2,8,9-trimethyl-4H-pyrimido[1,2-b]pyridazin-4-one], for which the Emax at 30 µM stood at 96% and the half-maximal effective concentration (EC50) is 0.123 µM.
In the case of `Cc1ccc2c(n1)CCN(c1nn3c(=O)ccnc3cc1C)C2` [Compound 1-448, 8-methyl-7-(2-methyl-7,8-dihydro-1,6-naphthyridin-6(5H)-yl)-4H-pyrimido[1,2-b] pyridazin-4-one], the EC50 turned out to be 2.3 µM. For the same compound, the Emax (CHO-K1) amounted to 66%.
Regarding `Cc1cc2nccc(=O)n2nc1N1CCc2ncc(N3CC(C)(C)Oc4ccccc43)cc2C1` [Compound 2-51, 7-(3-(2,2-dimethyl-2,3-dihydro-4H-benzo[b][1,4]oxazin-4-yl)-7,8-dihydro-1,6-naphthyridin-6(5H)-yl)-8-methyl-4H-pyrimido[1,2-b]pyridazin-4-one], the maximum response (Emax) at 30 µM came out at 80% and the EC50 stood at 0.125 µM.
For `COCc1c(N2CCc3ncc(C(F)(F)F)cc3C2)nn2c(=O)ccnc2c1C` [Compound 1-270, 8-(methoxymethyl)-9-methyl-7-(3-(trifluoromethyl)-7,8-dihydro-1,6-naphthyridin-6(5H)-yl)-4H-pyrimido[1,2-b]pyridazin-4-one] the same measures were 95% and 0.033 µM.
Regarding `Cc1c(N2CCc3ncc(-n4cccn4)cc3C2)nn2c(=O)ccnc2c1C` [Compound 2-34, 7-(3-(1H-pyrazol-1-yl)-7,8-dihydro-1,6-naphthyridin-6(5H)-yl)-8,9-dimethyl-4H-pyrimido[1,2-b]pyridazin-4-one], the Emax at 30 µM stood at 77% and the concentration for a half-maximal effect (EC50) worked out at 0.318 µM.
Take `Cc1c(N2CCc3ncc(-c4cnn(C(F)F)c4)cc3C2)nn2c(=O)cc(C(F)F)nc2c1C` [Compound 1-172, 2-(difluoromethyl)-7-(3-(1-(difluoromethyl)-1H-pyrazol-4-yl)-7,8-dihydro-1,6-naphthyridin-6(5H)-yl)-8,9-dimethyl-4H-pyrimido[1,2-b]pyridazin-4-one]: the maximal response (Emax) at 30 µM is 85% and the concentration for a half-maximal effect (EC50) turned out to be 0.114 µM.
As for `Cc1cc2nccc(=O)n2nc1N1CCc2ncc(Nc3cc(F)cc(F)c3)cc2C1` [Compound 2-105, 7-(3-((3,5-difluorophenyl)amino)-7,8-dihydro-1,6-naphthyridin-6(5H)-yl)-8-methyl-4H-pyrimido[1,2-b]pyridazin-4-one], the maximal effect (Emax) at 30 µM was 88% and the half-maximal effective concentration (EC50) was 0.019 µM.
In the case of `Cc1cc(=O)n2nc(N3CCc4ncc(-c5cccnc5F)cc4C3)c(C)cc2n1` [Compound 1-69, 7-(3-(2-fluoropyridin-3-yl)-7,8-dihydro-1,6-naphthyridin-6(5H)-yl)-2,8-dimethyl-4H-pyrimido[1,2-b]pyridazin-4-one], the Emax at 30 µM came to 87% and the half-maximal effective concentration (EC50) is 0.769 µM.
Consider `COCc1cc(=O)n2nc(N3CCc4ncc(-c5cc(F)ccn5)cc4C3)c(C)cc2n1` [Compound 1-383, 7-(3-(4-fluoropyridin-2-yl)-7,8-dihydro-1,6-naphthyridin-6(5H)-yl)-2-(methoxymethyl)-8-methyl-4H-pyrimido[1,2-b] pyridazin-4-one], for which the maximal response (Emax) at 30 µM worked out at 83% and the half-maximal effective concentration (EC50) is 0.647 µM.
Regarding `Cc1cc2nccc(=O)n2nc1N1CCc2ncc(-c3cnn(C)c3C)cc2C1` [Compound 1-408, 7-(3-(1,5-dimethyl-1H-pyrazol-4-yl)-7,8-dihydro-1,6-naphthyridin-6(5H)-yl)-8-methyl-4H-pyrimido[1,2-b]pyridazin-4-one], the Emax at 30 µM was determined as 90% and the EC50 came out at 0.257 µM.

In general, Emax refers to the size of the effect at its maximum, as opposed to the concentration needed. The EC50 is the concentration giving half of the maximal effect.

These data come from patent US20250101041A1, “POSITIVE ALLOSTERIC MODULATORS OF THE MUSCARINIC ACETYLCHOLINE RECEPTOR M4” (Vanderbilt University, priority 2022, published 2025).
